In US10800791B2, “Triazole ACC inhibitors and uses thereof” (Gilead Apollo, LLC, priority 2015, dated 2020):
Values after ≈ are worked out from the molar mass of the structure shown. Like-named read-outs stand apart in the source and are kept apart here.

Assays:
Botrtyis cinerea (Bc) = test: Growth inhibition assay of fungal pathogens, Bc; type: cell-based; settings: 48 h
Procedure, shortened: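 Spores diluted in 17% V8 liquid media and incubated with compound at final 50, 10, 2 ppm or 2, 0.4, 0.08 ppm (2% DMSO). OD600 plus visual ratings at 24 and 48 hours, blank-subtracted; percent growth inhibition from 48 h readings relative to 2% DMSO control.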

C. albicans = test: Antifungal Activity Assay (broth microtiter MIC), C. albicans; type: cell-based, Candida albicans; settings: Candida albicans, ATCC90028, 48 h
Procedure, shortened: (§1)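 CLSI M27-A3 broth microdilution in RPMI 1640+MOPS, final inoculum 2.5×10^3 CFU/mL from overnight Sabouraud cultures grown at 35 °C. MIC read visually at 48 h against growth control.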

C. krusei = test: Antifungal Activity Assay (broth microtiter MIC), C. krusei; type: cell-based, Candida krusei; settings: Pichia kudriavzevii, ATCC6258, 48 h
Procedure, shortened: as §1

[1] = read-out: Concentration at 90% Inhibition Bc, Botrtyis cinerea, growth inhibition at 48 hours vs 2% DMSO control
[2] = read-out: Concentration at 90% Inhibition Bc, Botrtyis cinerea, growth inhibition vs 2% DMSO control at 48 hours
[3] = read-out: MIC, C. albicans ATCC 90028, Table 3a, 3 replicates, MIC recorded at 48 h
[4] = read-out: MIC, C. albicans ATCC 90028, Table 3b (additional results), 3 replicates, MIC recorded at 48 h
[5] = read-out: MIC, C. krusei ATCC 6258, Table 3a, 3 replicates, MIC recorded at 48 h
[6] = read-out: MIC, C. krusei ATCC 6258, Table 3b (additional results), 3 replicates, MIC recorded at 48 h
[7] = Botrtyis cinerea, growth inhibition at 48 hours vs 2% DMSO control, read-out: Concentration at 90% Inhibition Bc
[8] = Botrtyis cinerea, growth inhibition vs 2% DMSO control at 48 hours, read-out: Concentration at 90% Inhibition Bc
[9] = Table 3a, ATCC 90028, 3 replicates, MIC recorded at 48 h, read-out: MIC, C. albicans ATCC 90028
[10] = Table 3b (additional results), ATCC 90028, 3 replicates, MIC recorded at 48 h, read-out: MIC, C. albicans ATCC 90028
[11] = Table 3a, ATCC 6258, 3 replicates, MIC recorded at 48 h, read-out: MIC, C. krusei ATCC 6258
[12] = Table 3b (additional results), ATCC 6258, 3 replicates, MIC recorded at 48 h, read-out: MIC, C. krusei ATCC 6258

SMILES	IC90 (Botrtyis cinerea (Bc); [1]) [µg/mL]	IC90 (Botrtyis cinerea (Bc); [2]) [µg/mL]	MIC (C. albicans; [3]) [µg/mL]	MIC (C. albicans; [4]) [µg/mL]	MIC (C. krusei; [5]) [µg/mL]	MIC (C. krusei; [6]) [µg/mL]	IC90 (Botrtyis cinerea (Bc); [7]) [µg/mL]	IC90 (Botrtyis cinerea (Bc); [8]) [µg/mL]	MIC (C. albicans; [9]) [µg/mL]	MIC (C. albicans; [10]) [µg/mL]	MIC (C. krusei; [11]) [µg/mL]	MIC (C. krusei; [12]) [µg/mL]
COc1ccc(F)cc1[C@H](Cn1c(=O)n(C(C)(C)C(=O)NC(C)C)c(=O)c2c(C)c(-n3nccn3)sc21)OC[C@H](C)O [Compound I-47, 2-(1-((R)-2-(5-fluoro-2-methoxyphenyl)-2-((S)-2-hydroxypropoxy)ethyl)-5-methyl-2,4-dioxo-6-(2H-1,2,3-triazol-2-yl)-1,4-dihydro-thieno[2,3-d]pyrimidin-3(2H)-yl)-N-isopropyl-2-methylpropanamide]	0.4 (≈ 0.664 µM)	0.4 (≈ 0.664 µM)	0.25 to 1 (≈ 0.415 to 1.66 µM)	0.25 to 1 (≈ 0.415 to 1.66 µM)	0.06 to 0.24 (≈ 0.0996 to 0.398 µM)	1.01 to 2 (≈ 1.68 to 3.32 µM)	–	–	–	–	–	–
COc1ccc(F)cc1[C@H](Cn1c(=O)n(C(C)(C)C(=O)N2CCCC2)c(=O)c2c(C)c(-n3nccn3)sc21)OC[C@H](C)O [Compound I-48, 1-((R)-2-(5-fluoro-2-methoxyphenyl)-2-((S)-2-hydroxy-propoxy)ethyl)-5-methyl-3-(2-methyl-1-oxo-1-(pyrrolidin-1-yl)propan-2-yl)-6-(2H-1,2,3-triazol-2-yl)thieno[2,3-d]pyrimidine-2,4(1H,3H)-dione]	–	–	–	–	–	–	2 (≈ 3.25 µM)	2 (≈ 3.25 µM)	1.1 to 2 (≈ 1.79 to 3.25 µM)	0.25 to 1 (≈ 0.407 to 1.63 µM)	1.1 to 2 (≈ 1.79 to 3.25 µM)	2.01 to 4 (≈ 3.27 to 6.51 µM)
COc1ccc(F)cc1[C@H](Cn1c(=O)n(C(C)(C)C(=O)N(C)C)c(=O)c2c(C)c(-n3nccn3)sc21)OC(C)C [Compound I-49, (R)-2-(1-(2-(5-fluoro-2-methoxyphenyl)-2-isopropoxy-ethyl)-5-methyl-2,4-dioxo-6-(2H-1,2,3-triazol-2-yl)-1,4-dihydrothieno[2,3-d]pyrimi-din-3(2H)-yl)-N,N,2-trimethylpropanamide]	0.4 (≈ 0.698 µM)	0.4 (≈ 0.698 µM)	2.1 to 4 (≈ 3.67 to 6.98 µM)	1.01 to 2 (≈ 1.76 to 3.49 µM)	2.1 to 4 (≈ 3.67 to 6.98 µM)	1.01 to 2 (≈ 1.76 to 3.49 µM)	–	–	–	–	–	–
CNC(=O)C(C)(C)n1c(=O)c2c(C)c(-n3nccn3)sc2n(C[C@H](OC(C)C)c2cc(F)ccc2OC)c1=O [Compound I-50, (R)-2-(1-(2-(5-fluoro-2-methoxyphenyl)-2-isopropoxy-ethyl)-5-methyl-2,4-dioxo-6-(2H-1,2,3-triazol-2-yl)-1,4-dihydrothieno[2,3-d]pyrimidin-3(2H)-yl)-N,2-dimethylpropanamide]	2 (≈ 3.58 µM)	2 (≈ 3.58 µM)	1.1 to 2 (≈ 1.97 to 3.58 µM)	1.01 to 2 (≈ 1.81 to 3.58 µM)	1.1 to 2 (≈ 1.97 to 3.58 µM)	0.25 to 1 (≈ 0.448 to 1.79 µM)	–	–	–	–	–	–
COc1ccc(F)cc1[C@H](Cn1c(=O)n(C(C)(C)C(=O)N2CC=CC2)c(=O)c2c(C)c(-n3nccn3)sc21)OC(C)C [Compound I-51, (R)-3-(1-(2,5-dihydro-1H-pyrrol-1-yl)-2-methyl-1-oxopropan-2-yl)-1-(2-(5-fluoro-2-methoxyphenyl)-2-isopropoxyethyl)-5-methyl-6-(2H-1,2,3-triazol-2-yl)thieno[2,3-d]pyrimidine-2,4(1H,3H)-dione]	–	–	–	–	–	–	0.4 (≈ 0.67 µM)	0.4 (≈ 0.67 µM)	0.25 to 1 (≈ 0.419 to 1.68 µM)	1.01 to 2 (≈ 1.69 to 3.35 µM)	0.25 to 1 (≈ 0.419 to 1.68 µM)	0.25 to 1 (≈ 0.419 to 1.68 µM)
COc1ccc(F)cc1[C@H](Cn1c(=O)n(C(C)(C)C(=O)NCC#N)c(=O)c2c(C)c(-n3nccn3)sc21)OC(C)C [Compound I-52, (R)—N-(cyanomethyl)-2-(1-(2-(5-fluoro-2-methoxyphenyl)-2-isopropoxyethyl)-5-methyl-2,4-dioxo-6-(2H-1,2,3-triazol-2-yl)-1,4-dihydro-thieno[2,3-d]pyrimidin-3(2H)-yl)-2-methylpropanamide]	2 (≈ 3.43 µM)	2 (≈ 3.43 µM)	2.1 to 4 (≈ 3.6 to 6.85 µM)	1.01 to 2 (≈ 1.73 to 3.43 µM)	2.1 to 4 (≈ 3.6 to 6.85 µM)	0.25 to 1 (≈ 0.428 to 1.71 µM)	–	–	–	–	–	–
Cc1c(-n2nccn2)sc2c1c(=O)n(C(C)(C)C(=O)NC(C)C)c(=O)n2C[C@H](OC(C)C)c1cc(F)ccc1OCCO [Compound I-53, (R)-2-(1-(2-(5-fluoro-2-(2-hydroxyethoxy)phenyl)-2-isopropoxyethyl)-5-methyl-2,4-dioxo-6-(2H-1,2,3-triazol-2-yl)-1,4-dihydrothieno[2,3-d]pyrimidin-3(2H)-yl)-N-isopropyl-2-methylpropanamide]	–	–	–	–	–	–	0.4 (≈ 0.649 µM)	0.4 (≈ 0.649 µM)	0.25 to 1 (≈ 0.405 to 1.62 µM)	0.25 to 1 (≈ 0.405 to 1.62 µM)	0.25 to 1 (≈ 0.405 to 1.62 µM)	0.06 to 0.249 (≈ 0.0973 to 0.404 µM)
COCCOc1ccc(F)cc1[C@H](Cn1c(=O)n(C(C)(C)C(=O)NC(C)C)c(=O)c2c(C)c(-n3nccn3)sc21)OC(C)C [Compound I-54, (R)-2-(1-(2-(5-fluoro-2-(2-methoxyethoxy)phenyl)-2-isopropoxyethyl)-5-methyl-2,4-dioxo-6-(2H-1,2,3-triazol-2-yl)-1,4-dihydrothieno[2,3-d]pyrimidin-3(2H)-yl)-N-isopropyl-2-methylpropanamide]	–	–	–	–	–	–	0.4 (≈ 0.634 µM)	0.4 (≈ 0.634 µM)	0.25 to 1 (≈ 0.396 to 1.59 µM)	0.25 to 1 (≈ 0.396 to 1.59 µM)	0.25 to 1 (≈ 0.396 to 1.59 µM)	0.25 to 1 (≈ 0.396 to 1.59 µM)
Cc1c(-n2nccn2)sc2c1c(=O)n(C(C)(C)C(=O)NC(C)C)c(=O)n2C[C@H](OC(C)C)c1cc(F)ccc1OCC1COC1 [Compound I-55, (R)-2-(1-(2-(5-fluoro-2-(oxetan-3-ylmethoxy)phenyl)-2-isopropoxyethyl)-5-methyl-2,4-dioxo-6-(2H-1,2,3-triazol-2-yl)-1,4-dihydrothieno[2,3-d]pyrimidin-3(2H)-yl)-N-isopropyl-2-methylpropanamide]	–	–	–	–	–	–	0.4 (≈ 0.622 µM)	0.4 (≈ 0.622 µM)	0.25 to 1 (≈ 0.389 to 1.56 µM)	1.01 to 2 (≈ 1.57 to 3.11 µM)	0.25 to 1 (≈ 0.389 to 1.56 µM)	1.01 to 2 (≈ 1.57 to 3.11 µM)
Cc1c(-n2nccn2)sc2c1c(=O)n(C(C)(C)C(=O)NC(C)C)c(=O)n2C[C@H](OC(C)C)c1cc(F)ccc1OCC#N [Compound I-56, (R)-2-(1-(2-(2-(cyanomethoxy)-5-fluorophenyl)-2-isopropoxyethyl)-5-methyl-2,4-dioxo-6-(2H-1,2,3-triazol-2-yl)-1,4-dihydrothieno[2,3-d]pyrimidin-3(2H)-yl)-N-isopropyl-2-methylpropanamide]	0.4 (≈ 0.654 µM)	0.4 (≈ 0.654 µM)	0.25 to 1 (≈ 0.409 to 1.63 µM)	1.01 to 2 (≈ 1.65 to 3.27 µM)	0.06 to 0.24 (≈ 0.0981 to 0.392 µM)	0.25 to 1 (≈ 0.409 to 1.63 µM)	–	–	–	–	–	–
COc1ccc(F)cc1[C@H](Cn1c(=O)n(C(C)(C)C(=O)N2CC=CC2)c(=O)c2c(C)c(-n3nccn3)sc21)OC1CCOCC1 [Compound I-62, (R)-3-(1-(2,5-dihydro-1H-pyrrol-1-yl)-2-methyl-1-oxopro-pan-2-yl)-1-(2-(5-fluoro-2-methoxyphenyl)-2-((tetrahydro-2H-pyran-4-yl)oxy)ethyl)-5-methyl-6-(2H-1,2,3-triazol-2-yl)thieno[2,3-d]pyrimidine-2,4(1H,3H)-dione]	–	–	–	–	–	–	2 (≈ 3.13 µM)	2 (≈ 3.13 µM)	0.25 to 1 (≈ 0.391 to 1.57 µM)	0.25 to 1 (≈ 0.391 to 1.57 µM)	0.25 to 1 (≈ 0.391 to 1.57 µM)	0.25 to 1 (≈ 0.391 to 1.57 µM)
COc1ccc(F)cc1[C@H](Cn1c(=O)n(C(C)(C)C(=O)N2CC=CC2)c(=O)c2c(C)c(-n3nccn3)sc21)OC[C@@H](C)O [Compound I-63, 3-(1-(2,5-dihydro-1H-pyrrol-1-yl)-2-methyl-1-oxopropan-2-yl)-1-((R)-2-(5-fluoro-2-methoxyphenyl)-2-((R)-2-hydroxypropoxy)ethyl)-5-methyl-6-(2H-1,2,3-triazol-2-yl)thieno[2,3-d]pyrimidine-2,4(1H,3H)-dione]	–	–	–	–	–	–	2 (≈ 3.26 µM)	2 (≈ 3.26 µM)	0.25 to 1 (≈ 0.408 to 1.63 µM)	1.01 to 2 (≈ 1.65 to 3.26 µM)	0.25 to 1 (≈ 0.408 to 1.63 µM)	> 4.01
COCCO[C@@H](Cn1c(=O)n(C(C)C(=O)N2CCCC2)c(=O)c2c(C)c(-n3nccn3)sc21)c1cc(F)ccc1OC (stereo partly drawn) [Compound I-64, 1-((R)-2-(5-fluoro-2-methoxyphenyl)-2-(2-methoxy-ethoxy)ethyl)-5-methyl-3-(1-oxo-1-(pyrrolidin-1-yl)propan-2-yl)-6-(2H-1,2,3-triazol-2-yl)thieno[2,3-d]pyrimidine-2,4(1H,3H)-dione]	–	–	–	–	–	–	2 (≈ 3.33 µM)	2 (≈ 3.33 µM)	2.1 to 4 (≈ 3.5 to 6.66 µM)	2.01 to 4 (≈ 3.35 to 6.66 µM)	2.1 to 4 (≈ 3.5 to 6.66 µM)	2.01 to 4 (≈ 3.35 to 6.66 µM)
COCCO[C@@H](Cn1c(=O)n([C@H](C)C(=O)N2CCCC2)c(=O)c2c(C)c(-n3nccn3)sc21)c1cc(F)ccc1OC [Compound I-65, 1-((R)-2-(5-fluoro-2-methoxyphenyl)-2-(2-methoxy-ethoxy)ethyl)-5-methyl-3-((R)-1-oxo-1-(pyrrolidin-1-yl)propan-2-yl)-6-(2H-1,2,3-triazol-2-yl)thieno[2,3-d]pyrimidine-2,4(1H,3H)-dione]	–	–	–	–	–	–	2 (≈ 3.33 µM)	2 (≈ 3.33 µM)	2.1 to 4 (≈ 3.5 to 6.66 µM)	2.01 to 4 (≈ 3.35 to 6.66 µM)	2.1 to 4 (≈ 3.5 to 6.66 µM)	2.01 to 4 (≈ 3.35 to 6.66 µM)
